Source: patent US11845752B2, “Substituted imidazo[1,5-a]pyrazines for the treatment of hepatitis B” (ALIGOS THERAPEUTICS, INC., priority 2020, dated 2023)

Test system: HBV
Assay: HBV-DNA antiviral assay using HepG2.117 cells (intracellular HBV DNA by qPCR)
Format: cell-based, HBV genotype D
Conditions: Hepatitis B virus, HepG2.117, 72 h, HBV DNA inhibition, 3 days incubation, read-out: EC50
Protocol: The following assay procedure describes the HBV antiviral assay, using HepG2.117 cells, which carry a stably integrated genotype D HBV genome under the control of a Tet-off promoter, and intracellular HBV DNA quantification as endpoint. Cell viability is assessed in parallel by measuring the intracellular ATP content using ATPlite (Perkin Elmer).
On day 0, HepG2.117 cells (which are maintained in routine cell culture with doxycycline present in the medium at a final concentration of 1 μg/mL) were seeded in 96-well plates (white with clear bottom) at a density of 2.0×10^4 cells/well (0.1 mL/well) in medium without doxycycline to induce pgRNA transcription and subsequent formation of HBV particles. The cells were incubated at 37° C. and 5% CO2.
On day 1, medium was removed from each well, the test articles were diluted in culture medium without doxcycyline and 100 μL was added to cell culture wells (9 concentrations, 4-fold dilution). For each plate, 6 untreated (merely DMSO) wells were included. The final concentration of DMSO in the culture medium was 2%. Each plate was prepared in duplicate (one for HBV DNA extraction, one for ATPlite measurement). The cells were incubated at 37° C. and 5% CO2 for 3 days.
On day 4, cell viability was assessed using ATPlite and cell lysates were prepared for HBV DNA extraction and subsequent quantification by qPCR.
Medium was removed from each well and 100 μL of 0.33% NP-40 in H2O was added to each well. Plates were sealed, incubated at 4° C. for 5 mins, vortexed extensively and centrifuged briefly. Next, 35 μL of lysate was added to 65 μL QuickExtract DNA Extraction Solution (Epicentre) in a PCR plate for each well. PCR plate was incubated at 65° C. for 6 mins, 98° C. for 2 mins and finally cooled to 4° C. HBV DNA was then quantified by qPCR with HBV-specific primers and probes as specified in Table 1 using the Bio-Rad SSOAdvanced Universal Probes Supermix on a CFX96 machine (Bio-Rad). The PCR cycle program consisted of 95° C. for 3 mins, followed by 40 cycles at 95° C. for 10 sec and 60° C. for 30 sec.
A DNA standard was prepared by dilution of an IDT gBlock corresponding to the amplicon with concentrations ranging from 10^2 to 10^8 copies/input (i.e. per 4 μL) and used to generate a standard curve by plotting Cq values vs. HBV DNA standard concentration. The quantity of HBV DNA in each sample was determined by interpolating from the standard curve.
Cell viability was calculated as follows: % Cell viability=(luminescence value of test sample)/(average luminescence value of 2% DMSO control)×100%. HBV DNA inhibition was calculated as follows: 100−(HBV DNA copy number of test sample)/(average HBV DNA copy number of 2% DMSO control)×100%. No normalization to entecavir was required due to the excellent dynamic window of this assay. The CC50, EC50 and EC90 values were determined by dose-response curves fitted using non-linear regression.

SMILES: CC1Cn2c(c(C(=O)NCc3ccccc3-c3ccncn3)n(-c3ccc(N4CCO[C@H](C(F)(F)F)C4)cc3)c2=O)CN1C(=O)c1ccc(Br)c(C(F)(F)F)c1 (mixture of isomers) [Compound 52a, rac-(6S)-7-[4-bromo-3-(trifluoromethyl)benzoyl]-6-methyl-3-oxo-N-[(2-pyrimidin-4-ylphenyl)methyl]-2-[4-[(2S)-2-(trifluoromethyl)morpholin-4-yl]phenyl]-6,8-dihydro-5H-imidazo[1,5-a]pyrazine-1-carboxamide]
- EC50: 50 to 500 nM

SMILES: CC1Cn2c(c(C(=O)NCc3ccccc3-c3ccncn3)n(-c3ccc(N4CCO[C@H](C(F)(F)F)C4)cc3)c2=O)CN1C(=O)c1ccc(Br)c(C(F)(F)F)c1 (mixture of isomers) [Compound 52b, rac-(6R)-7-[4-bromo-3-(trifluoromethyl)benzoyl]-6-methyl-3-oxo-N-[(2-pyrimidin-4-ylphenyl)methyl]-2-[4-[(2S)-2-(trifluoromethyl)morpholin-4-yl]phenyl]-6,8-dihydro-5H-imidazo[1,5-a]pyrazine-1-carboxamide]
- EC50: < 50 nM

SMILES: C[C@H](O)COc1ccc(-n2c(C(=O)NCc3ccccc3-c3cccnn3)c3n(c2=O)C[C@H](C)N(C(=O)c2ccc(Br)c(C(F)(F)F)c2)C3)cc1 (mixture of isomers) [Compound 57b, (6SR)-7-[4-bromo-3-(trifluoromethyl)benzoyl]-2-[4-[(2S)-2-hydroxypropoxy]phenyl]-6-methyl-3-oxo-N-[(2-pyridazin-3-ylphenyl)methyl]-6,8-dihydro-5H-imidazo[1,5-a]pyrazine-1-carboxamide]
- EC50: 50 to 500 nM

SMILES: C[C@H](O)COc1ccc(-n2c(C(=O)NCc3ccccc3-c3ccncn3)c3n(c2=O)C[C@@H](C)N(C(=O)c2ccc(Br)c(C(F)(F)F)c2)C3)cc1 (mixture of isomers) [Compound 58a, (6RS)-7-[4-bromo-3-(trifluoromethyl)benzoyl]-2-[4-[(2S)-2-hydroxypropoxy]phenyl]-6-methyl-3-oxo-N-[(2-pyrimidin-4-ylphenyl)methyl]-6,8-dihydro-5H-imidazo[1,5-a]pyrazine-1-carboxamide]
- EC50: 50 to 500 nM

SMILES: C[C@H](O)COc1ccc(-n2c(C(=O)NCc3ccccc3-c3ccncn3)c3n(c2=O)C[C@H](C)N(C(=O)c2ccc(Br)c(C(F)(F)F)c2)C3)cc1 (mixture of isomers) [Compound 58b, (6SR)-7-[4-bromo-3-(trifluoromethyl)benzoyl]-2-[4-[(2S)-2-hydroxypropoxy]phenyl]-6-methyl-3-oxo-N-[(2-pyrimidin-4-ylphenyl)methyl]-6,8-dihydro-5H-imidazo[1,5-a]pyrazine-1-carboxamide]
- EC50: < 50 nM

SMILES: C[C@@H](O)COc1ccc(-n2c(C(=O)NCc3ccccc3-c3ccccn3)c3n(c2=O)C[C@H](C)N(C(=O)c2ccc(Br)c(C(F)(F)F)c2)C3)cc1 (mixture of isomers) [Compound 60b, (6SR)-7-[4-bromo-3-(trifluoromethyl)benzoyl]-2-[4-[(2R)-2-hydroxypropoxy]phenyl]-6-methyl-3-oxo-N-[[2-(2-pyridyl)phenyl]methyl]-6,8-dihydro-5H-imidazo[1,5-a]pyrazine-1-carboxamide]
- EC50: < 50 nM

SMILES: C[C@H](O)COc1ccc(-n2c(C(=O)NCc3ccccc3-c3ccccn3)c3n(c2=O)C[C@@H](C)N(C(=O)c2ccc(Br)c(C(F)(F)F)c2)C3)cc1 (mixture of isomers) [Compound 61a, (6RS)-7-[4-bromo-3-(trifluoromethyl)benzoyl]-2-[4-[(2S)-2-hydroxypropoxy]phenyl]-6-methyl-3-oxo-N-[[2-(2-pyridyl)phenyl]methyl]-6,8-dihydro-5H-imidazo[1,5-a]pyrazine-1-carboxamide]
- EC50: < 50 nM

SMILES: C[C@H](O)COc1ccc(-n2c(C(=O)NCc3ccccc3-c3ccccn3)c3n(c2=O)C[C@H](C)N(C(=O)c2ccc(Br)c(C(F)(F)F)c2)C3)cc1 (mixture of isomers) [Compound 61b, (6SR)-7-[4-bromo-3-(trifluoromethyl)benzoyl]-2-[4-[(2S)-2-hydroxypropoxy]phenyl]-6-methyl-3-oxo-N-[[2-(2-pyridyl)phenyl]methyl]-6,8-dihydro-5H-imidazo[1,5-a]pyrazine-1-carboxamide]
- EC50: < 50 nM

SMILES: C[C@@H](O)COc1ccc(-n2c(C(=O)NCc3ccccc3-c3ncccn3)c3n(c2=O)C[C@H](C)N(C(=O)c2ccc(Br)c(C(F)(F)F)c2)C3)cc1 (mixture of isomers) [Compound 64b, (6SR)-7-[4-bromo-3-(trifluoromethyl)benzoyl]-2-[4-[(2R)-2-hydroxypropoxy]phenyl]-6-methyl-3-oxo-N-[(2-pyrimidin-2-ylphenyl)methyl]-6,8-dihydro-5H-imidazo[1,5-a]pyrazine-1-carboxamide]
- EC50: 50 to 500 nM

SMILES: C[C@@H]1Cn2c(c(C(=O)NCc3ccccc3-c3cccnn3)n(-c3ccc(OC[C@@H](O)C(F)(F)F)cc3)c2=O)CN1C(=O)c1ccc(Br)c(C(F)(F)F)c1 (mixture of isomers) [Compound 66a, (6RS)-7-[4-bromo-3-(trifluoromethyl)benzoyl]-6-methyl-3-oxo-N-[(2-pyridazin-3-ylphenyl)methyl]-2-[4-[(2R)-3,3,3-trifluoro-2-hydroxy-propoxy]phenyl]-6,8-dihydro-5H-imidazo[1,5-a]pyrazine-1-carboxamide]
- EC50: 50 to 500 nM

SMILES: C[C@H]1Cn2c(c(C(=O)NCc3ccccc3-c3cccnn3)n(-c3ccc(OC[C@@H](O)C(F)(F)F)cc3)c2=O)CN1C(=O)c1ccc(Br)c(C(F)(F)F)c1 (mixture of isomers) [Compound 66b, (6SR)-7-[4-bromo-3-(trifluoromethyl)benzoyl]-6-methyl-3-oxo-N-[(2-pyridazin-3-ylphenyl)methyl]-2-[4-[(2R)-3,3,3-trifluoro-2-hydroxy-propoxy]phenyl]-6,8-dihydro-5H-imidazo[1,5-a]pyrazine-1-carboxamide]
- EC50: 50 to 500 nM

SMILES: C[C@@H]1Cn2c(c(C(=O)NCc3ccccc3-c3cccnn3)n(-c3ccc(OC[C@H](O)C(F)(F)F)cc3)c2=O)CN1C(=O)c1ccc(Br)c(C(F)(F)F)c1 (mixture of isomers) [Compound 67a, (6RS)-7-[4-bromo-3-(trifluoromethyl)benzoyl]-6-methyl-3-oxo-N-[(2-pyridazin-3-ylphenyl)methyl]-2-[4-[(2S)-3,3,3-trifluoro-2-hydroxy-propoxy]phenyl]-6,8-dihydro-5H-imidazo[1,5-a]pyrazine-1-carboxamide]
- EC50: 50 to 500 nM

SMILES: C[C@H]1Cn2c(c(C(=O)NCc3ccccc3-c3cccnn3)n(-c3ccc(OC[C@H](O)C(F)(F)F)cc3)c2=O)CN1C(=O)c1ccc(Br)c(C(F)(F)F)c1 (mixture of isomers) [Compound 67b, (6SR)-7-[4-bromo-3-(trifluoromethyl)benzoyl]-6-methyl-3-oxo-N-[(2-pyridazin-3-ylphenyl)methyl]-2-[4-[(2S)-3,3,3-trifluoro-2-hydroxy-propoxy]phenyl]-6,8-dihydro-5H-imidazo[1,5-a]pyrazine-1-carboxamide]
- EC50: < 50 nM

SMILES: C[C@H]1Cn2c(c(C(=O)NCc3ccccc3-c3ccccn3)n(-c3ccc(OC[C@@H](O)C(F)(F)F)cc3)c2=O)CN1C(=O)c1ccc(Br)c(C(F)(F)F)c1 (mixture of isomers) [Compound 68b, (6SR)-7-[4-bromo-3-(trifluoromethyl)benzoyl]-6-methyl-3-oxo-N-[[2-(2-pyridyl)phenyl]methyl]-2-[4-[(2R)-3,3,3-trifluoro-2-hydroxy-propoxy]phenyl]-6,8-dihydro-5H-imidazo[1,5-a]pyrazine-1-carboxamide]
- EC50: < 50 nM

SMILES: C[C@H]1Cn2c(c(C(=O)NCc3ccccc3-c3ccccn3)n(-c3ccc(OC[C@H](O)C(F)(F)F)cc3)c2=O)CN1C(=O)c1ccc(Br)c(C(F)(F)F)c1 (mixture of isomers) [Compound 69b, (6SR)-7-[4-bromo-3-(trifluoromethyl)benzoyl]-6-methyl-3-oxo-N-[[2-(2-pyridyl)phenyl]methyl]-2-[4-[(2S)-3,3,3-trifluoro-2-hydroxy-propoxy]phenyl]-6,8-dihydro-5H-imidazo[1,5-a]pyrazine-1-carboxamide]
- EC50: 50 to 500 nM
